Test results published in patent US10624875B2, “Methods and compositions for treating schizophrenia” (The Johns Hopkins University, priority 2012, dated 2020).
“And” between values parts separate entries of the source, which are not always exact repeats. Equal entries are not always repeated.

Key:
MAM-treated rats [1] = settings: administered systemically and directly infused into the ventral HPC; cited from earlier work
HPC neurons = settings: saline-treated and MAM-treated animals; cited from earlier work
MAM-treated rats [2] = settings: cited from earlier work
aged-impaired (AI) rats = assay: eight-arm Radial Arm Maze (RAM) task with one-hour delay, spatial memory retention; assay type: in vivo, rat; settings: drug on its own (levetiracetam i.p., valproate subcutaneous)
Procedure: The effects of levetiracetam on the spatial memory retention of aged-impaired (AI) rats were assessed in a Radial Arm Maze (RAM) behavioral task using vehicle control and five different dosage levels of levetiracetam (1.25 mg/kg/day, 2.5 mg/kg/day, 5 mg/kg/day, 10 mg/kg/day and 20 mg/kg/day). RAM behavioral tasks were preformed on ten AI rats. All six treatment conditions were tested on all ten rats, as described above for the MWM test. The RAM apparatus used consisted of eight equidistantly-spaced arms. An elevated maze arm (7 cm width×75 cm length) projected from each facet of an octagonal center platform (30 cm diameter, 51.5 cm height). Clear side walls on the arms were 10 cm high and were angled at 65° to form a trough. A food well (4 cm diameter, 2 cm deep) was located at the distal end of each arm. Froot Loops™ (Kellogg Company) were used as rewards. Blocks constructed of Plexiglas™ (30 cm height×12 cm width) could be positioned to prevent entry to any arm. Numerous extra maze cues surrounding the apparatus were also provided. The AI rats were initially subjected to a pre-training test (Chappell et al. Neuropharmacology 37: 481-487, 1998). The pre-training test consisted of a habituation phase (4 days), a training phase on the standard win-shift task (18 days) and another training phase (14 days) in which a brief delay was imposed between presentation of a subset of arms designated by the experimenter (e.g., 5 arms available and 3 arms blocked) and completion of the eight-arm win-shift task (i.e., with all eight arms available). In the habituation phase, rats were familiarized to the maze for an 8-minute session on four consecutive days. In each of these sessions food rewards were scattered on the RAM, initially on the center platform and arms and then progressively confined to the arms. After this habituation phase, a standard training protocol was used, in which a food pellet was located at the end of each arm. Rats received one trial each day for 18 days. Each daily trial terminated when all eight food pellets had been obtained or when either 16 choices were made or 15 minutes had elapsed. After completion of this training phase, a second training phase was carried out in which the memory demand was increased by imposing a brief delay during the trial. At the beginning of each trial, three arms of the eight-arm maze were blocked. Rats were allowed to obtain food on the five arms to which access was permitted during this initial ‘information phase’ of the trial. Rats were then removed from the maze for 60 seconds, during which time the barriers on the maze were removed, thus allowing access to all eight arms. Rats were then placed back onto the center platform and allowed to obtain the remaining food rewards during this ‘retention test’ phase of the trial. The identity and configuration of the blocked arms varied across trials. The number of “errors” the AI rats made during the retention test phase was tracked. An error occurred in the trial if the rats entered an arm from which food had already been retrieved in the pre-delay component of the trial, or if it re-visited an arm in the post-delay session that had already been visited. After completion of the pre-training test, rats were subjected to trials with more extended delay intervals, i.e., a one-hour delay, between the information phase (presentation with some blocked arms) and the retention test (presentation of all arms). […]

In the case of `C#Cc1ccc2c(c1)C(c1ccccc1F)=N[C@H](C)c1c(C(=O)OCC)ncn1-2` [SH-053-2′F—R—CH3], the “number of spontaneously active DA neurons in the ventral tegmental area (VTA)” value (MAM-treated rats [1]) is listed as “reduces the number of spontaneously active DA neurons”, the “cortical-evoked responses of HPC neurons” value (HPC neurons) is listed as “diminished cortical-evoked responses” and the “increased locomotor response to amphetamine” value (MAM-treated rats [2]) is listed as “is reduced”.
For `CCCC(CCC)C(=O)O` [Valproate], the “dose effective in reducing the number of errors” value (aged-impaired (AI) rats) was 100 mg/kg and the “dose not effective in reducing the number of errors” value (aged-impaired (AI) rats) was 25 mg/kg and 50 mg/kg.
